Experimental findings from PMC7926793, “Synthesis and Biological Evaluation of 1-(Diarylmethyl)-1H-1,2,4-triazoles and 1-(Diarylmethyl)-1H-imidazoles as a Novel Class of Anti-Mitotic Agent for Activity in Breast Cancer” (Pharmaceuticals, 2021) are described below.

“And” between values parts separate entries of the source, which are not always exact repeats. Identical values can stand only once. Like-named read-outs stand apart in the source and are kept apart here. Bounds are passed on as bounds.

In assay [1] the test system is MDA-MB-231 human breast cancer cells. As to the kind of experiment: alamarBlue cell viability assay. The format is cell-based. To be noted: read-out: Antiproliferative Activity MDA-MB-231 Cells IC50. The protocol:
(§1) The human breast carcinoma cell line MCF-7 was purchased from the European Collection of Animal Cell Cultures (ECACC) and cultured in Eagles minimum essential medium with 10% foetal bovine serum, 2 mM L-glutamine, and 100 μg/mL penicillin/streptomycin. The medium was supplemented with 1% non-essential amino acids. The human breast carcinoma cell line MDA-MB-231 was purchased from the ECACC. MDA-MB-231 cells were maintained in Dulbecco’s modified Eagle’s medium (DMEM) supplemented with 10% (v/v) foetal bovine serum, 2 mM L-glutamine, and 100 μg/mL penicillin/streptomycin (complete medium). HL-60 cells were derived from a patient with acute myeloid leukaemia and were obtained from the ECACC (Salisbury, UK). Cells were cultured in RPMI-1640 Glutamax medium supplemented with 10% FCS media and 100 μg/mL penicillin/streptomycin. MCF-10A cells were obtained as a kind gift from Dr Susan McDonnell, School of Chemical and Bioprocess Engineering, University College Dublin and were cultured in Dulbecco’s Modified Eagle Medium: Nutrient Mixture F-12 (DMEM/F12; Gibco) supplemented with 5% horse serum (Invitrogen), 20 ng mL^−1 epidermal growth factor (Merck Millipore), 0.5 μg mL^−1 hydrocortisone (Sigma,-Aldrich, Arklow, Co. Wicklow, Ireland), 100 ng mL^−1 cholera toxin (Sigma, Aldrich, Arklow, Co. Wicklow, Ireland), 10 μg mL^−1 insulin (Sigma, Aldrich, Arklow, Co. Wicklow, Ireland), and penicillin/streptomycin 5000 U mL^−1 (1%)(Gibco, Biosciences, 3 Charlemont Terrace, Crofton Road, Dun Laoghaire, Co Dublin, A96 K7H7, Ireland). Cells were maintained at 37 °C in 5% CO2 in a humidified incubator. All cells were sub-cultured 3 times/week by trypsinisation using TrypLE Express (1×).
(§2) Cells were seeded at a density of 2.5 × 10^4 cells/well (MCF-7, MDA-MB-231, MCF-10A cells) and 1 × 10^4 cells/well (HL-60) in 96-well plates (200 μL per well). After 24 h, cells were then treated with either medium alone, vehicle control (1% ethanol (v/v)) or with serial dilutions of CA-4 (4a), phenstatin (7a) or selected compounds (0.001–100 μM) in triplicate. Cell proliferation for MCF-7, MDA-MB-231, and MCF-10A cells was analysed using the alamarBlue assay (Invitrogen Corp.) according to the manufacturer’s instructions. After 67–69 h, alamarBlue (10% (v/v)) was added to each well, and plates were incubated for 3–5 h at 37 °C in the dark. Fluorescence was read using a 96-well fluorimeter with excitation at 530 nm and emission at 590 nm. Results were expressed as percentage viability relative to vehicle control (100%).

Assay [2] relates to MCF-7 human breast cancer cells. Briefly: alamarBlue cell viability assay. The format is cell-based. To be noted: Homo sapiens, 72 h; for viability at 1 µM: MCF7, read-out: cell viability (viable cells). The protocol:
as §1, §2
In general terms: Alamar Blue is a resazurin reagent that responds to reducing activity.

Another assay concerns NCI-H23. As to the kind of experiment: NCI 60 cell line screen (Non-Small Cell Lung Cancer). The format is cell-based, human. To be noted: for Growth percentage: NCI-H23, single dose 10 µM.
The next assay concerns T-47D. As to the kind of experiment: NCI 60 cell line screen (Breast Cancer). The format is cell-based, human. The conditions noted are these: single dose 10 µM.
The subject of the next assay is SF-268. Briefly: NCI 60 cell line screen (CNS Cancer). The format is cell-based, human. To be noted: for Growth percentage: SF-268, single dose 10 µM.
For the next assay, the system named is SK-OV-3. Briefly: NCI 60 cell line screen (Ovarian Cancer). The format is cell-based, human. The conditions noted are these: for Growth percentage: SK-OV-3, single dose 10 µM.
In another assay the test system is OVCAR-8. Briefly: NCI 60 cell line screen (Ovarian Cancer). The conditions noted are these: for Growth percentage: OVCAR-8, single dose 10 µM. The format is cell-based, human.
The subject of a further assay is SW-620. As to the kind of experiment: NCI 60 cell line screen (Colon Cancer). The format is cell-based, human. The conditions noted are these: for Growth percentage: SW-620, single dose 10 µM.
The test system of the next assay is SK-MEL-28. As to the kind of experiment: NCI 60 cell line screen (Melanoma). The format is cell-based, human. The conditions noted are these: SK-MEL-28, single dose 10 µM.
The test system of another assay is OVCAR-4. As to the kind of experiment: NCI 60 cell line screen (Ovarian Cancer). The conditions noted are these: for Growth percentage: OVCAR-4, single dose 10 µM. The format is cell-based, human.
The subject of the next assay is SK-MEL-5. Briefly: NCI 60 cell line screen (Melanoma). The format is cell-based, human. To be noted: for Growth percentage: SK-MEL-5, single dose 10 µM.
Another assay has as its system U251 (AC in Table 3). As to the kind of experiment: NCI 60 cell line screen (CNS Cancer). To be noted: for Growth percentage: U251, single dose 10 µM. The format is cell-based, human.
Another assay deals with A498. Briefly: NCI 60 cell line screen (Renal Cancer). The format is cell-based, human. To be noted: for Growth percentage: A498, single dose 10 µM.
The subject of a further assay is KM12. As to the kind of experiment: NCI 60 cell line screen (Colon Cancer). The format is cell-based, human. The conditions noted are these: for Growth percentage: KM12, single dose 10 µM.
The next assay relates to MDA-MB-231/ATCC. As to the kind of experiment: NCI 60 cell line screen (Breast Cancer). To be noted: for Growth percentage: single dose 10 µM. The format is cell-based, human.
A further assay deals with SN12C. Briefly: NCI 60 cell line screen (Renal Cancer). The conditions noted are these: for Growth percentage: single dose 10 µM. The format is cell-based, human.
In another assay the test system is ACHN. As to the kind of experiment: NCI 60 cell line screen (Renal Cancer). The format is cell-based, human. To be noted: for Growth percentage: single dose 10 µM.
The subject of a further assay is TK-10. Briefly: NCI 60 cell line screen (Renal Cancer). The format is cell-based, human. The conditions noted are these: for Growth percentage: TK-10, single dose 10 µM.
The subject of the next assay is HS 578T. As to the kind of experiment: NCI 60 cell line screen (Breast Cancer). The format is cell-based, human. To be noted: for Growth percentage: single dose 10 µM.
For another assay, the system named is UACC-62. As to the kind of experiment: NCI 60 cell line screen (Melanoma). The format is cell-based, human. To be noted: for Growth percentage: UACC-62, single dose 10 µM.
In the next assay the test system is SNB-75. As to the kind of experiment: NCI 60 cell line screen (CNS Cancer). The format is cell-based, human. The conditions noted are these: SNB-75, single dose 10 µM.

The IC50 is the concentration that inhibits the measured activity by half. One may read the viability as a read-out of living cells in per cent, often relative to untreated cells. In general, GI50 refers to the concentration that inhibits growth by half. A low value points to greater sensitivity of the cells. Regarding `COc1ccc(C(c2cc(OC)c(OC)c(OC)c2)n2cncn2)cc1O` (stereo not shown) [19e, 5-((1H-1,2,4-Triazol-1-yl)(3,4,5-Trimethoxyphenyl)methyl)-2-Methoxyphenol], the IC50 in assay [1] (72 h) came to 978 ± 130 nM; in assay [1] (Homo sapiens, MDA-MB-231, 72 h), 980 nM. Also, in [2], the viability at 1 µM was 29%. Moreover, the GI50 is 977 nM in the assay on NCI-H23 (Homo sapiens, NCI-H23, NCI 5 dose assay); 469 nM with SF-268 (Homo sapiens, SF-268, NCI 5 dose assay); 402 nM with SK-OV-3 (Homo sapiens, SK-OV-3, NCI 5 dose assay); 1140 nM in the assay with OVCAR-8 (Homo sapiens, OVCAR-8, NCI 5 dose assay); 431 nM with SW-620 (Homo sapiens, SW-620, NCI 5 dose assay); 3020 nM in the assay on OVCAR-4 (Homo sapiens, OVCAR-4, NCI 5 dose assay). Besides, the GI50 in the assay with SK-MEL-5 (Homo sapiens, SK-MEL-5, NCI 5 dose assay) turned out to be 440 nM; in the assay with U251 (AC in Table 3) (Homo sapiens, U-251, cell line printed AC, NCI 5 dose assay), 446 nM; with A498 (Homo sapiens, A498, NCI 5 dose assay), 324 nM; in the assay on KM12 (Homo sapiens, KM12, NCI 5 dose assay), 418 nM; in the assay with MDA-MB-231/ATCC (Homo sapiens, NCI 5 dose assay), 1500 nM; in the assay with SN12C (Homo sapiens, NCI 5 dose assay) it was 853 nM. Moreover, the GI50 in the assay with ACHN (Homo sapiens, NCI 5 dose assay) was 653 nM; in the assay on TK-10 (Homo sapiens, TK-10, NCI 5 dose assay), more than 100000 nM; in the assay with HS 578T (Homo sapiens, NCI 5 dose assay), 548 nM; in the assay with UACC-62 (Homo sapiens, UACC-62, NCI 5 dose assay), 550 nM. The Growth percentage with NCI-H23 was found to be 39.85%; in the assay on T-47D it was 34.98%; in the assay with SF-268, 48.75%; with SK-OV-3 it was 20.25%; with OVCAR-8 it was 13.43%; with SW-620, 29.08%. The Growth percentage in the assay with SK-MEL-28 stood at 57.04%; in the assay with OVCAR-4, 72.08%; with SK-MEL-5, 14.60%; in the assay with U251 (AC in Table 3), 15.32%; with A498, 9.66%; in the assay with KM12, 21.79%. The Growth percentage in the assay with MDA-MB-231/ATCC is given as 43.15%; in the assay on SN12C, 39.32%; in the assay on ACHN it was 52.36%; in the assay on TK-10, 61.31%; with HS 578T, 31.34%; in the assay with UACC-62, 32.04%. This molecule returned a Growth percentage in the assay on SNB-75 of 48.64%.
In the case of `COc1ccc(C(c2cc(OC)c(OC)c(OC)c2)N2CCN(Cc3ccccc3)CC2)cc1` (stereo not shown) [27d], the Growth percentage with NCI-H23 is 88.53%; with T-47D, 75.11%; in the assay with SF-268 it was 86.44%; in the assay with SK-OV-3, 66.24%; in the assay with OVCAR-8, 92.58%; in the assay on SW-620, 43.57%. The Growth percentage was 78.33% in the assay on SK-MEL-28; 97.02% in the assay on OVCAR-4; 52.63% in the assay with SK-MEL-5; 62.75% in the assay on U251 (AC in Table 3); 51.90% in the assay with A498; 40.62% with KM12. In addition, the Growth percentage with MDA-MB-231/ATCC is listed as 71.05%; in the assay on SN12C it was 88.36%; with ACHN, 92.77%; in the assay on TK-10, 84.76%; with HS 578T it was 59.07%; with UACC-62, 49.44%. This molecule showed a Growth percentage with SNB-75 of 92.44%.
For the molecule `COc1ccc(C(c2cc(OC)c(OC)c(OC)c2)N2CCCC2)cc1` (stereo not shown) [25g], in assay [2], the viability at 1 µM came out at 82%. Moreover, the Growth percentage in the assay with NCI-H23 was found to be 85.27%; with T-47D it was 89.77%; with SF-268 it was 84.26%; with SK-OV-3, 77.46%; in the assay on OVCAR-8, 95.58%; in the assay with SW-620, 47.76%. Also, the Growth percentage is on record as 80.08% in the assay with SK-MEL-28; 101.25% in the assay on OVCAR-4; 65.20% with SK-MEL-5; 77.78% with U251 (AC in Table 3); 31.23% with A498; 43.91% in the assay with KM12. Further, the Growth percentage amounted to 80.82% in the assay with MDA-MB-231/ATCC; 108.47% in the assay with SN12C; 103.18% in the assay with ACHN; 88.29% with TK-10; 80.45% in the assay on HS 578T; 57.35% with UACC-62. The Growth percentage in the assay with SNB-75 is on record as 84.06%.
On to `COc1ccc(C(c2cc(OC)c(OC)c(OC)c2)N2CCCCC2)cc1` (stereo not shown) [26b, 1-((4-Methoxyphenyl)(3,4,5-Trimethoxyphenyl)Methyl)Piperidine], for which the viability at 1 µM in assay [2] came out at 78%. The Growth percentage was 59.28% with NCI-H23; 33.59% with T-47D; 47.22% with SF-268; 16.68% in the assay on SK-OV-3; 50.11% with OVCAR-8; 14.47% in the assay on SW-620. Moreover, the Growth percentage in the assay with SK-MEL-28 turned out to be 47.22%; with OVCAR-4, 69.25%; with SK-MEL-5, 29.49%; in the assay with U251 (AC in Table 3) it was 26.12%; in the assay with A498, 7.32%; in the assay with KM12, 30.23%. Also, the Growth percentage with MDA-MB-231/ATCC is 53.09%; in the assay on SN12C, 54.32%; in the assay on ACHN it was 50.89%; with TK-10, 57.56%; in the assay with HS 578T, 16.61% and 16.6%; in the assay on UACC-62 it was 18.17%. In the assay on SNB-75, this molecule displayed a Growth percentage of 26.61%.
As for `COc1ccc(C(c2cc(OC)c(OC)c(OC)c2)n2nccn2)cc1O` (stereo not shown) [compound 24], the IC50 in assay [1] (Homo sapiens, MDA-MB-231, 72 h) was found to be 74 ± 30 nM; in [2] (MCF7, 72 h, alamarBlue, read-out: Antiproliferative Activity MCF-7 Cells IC50), 52 ± 40 nM. Besides, the viability at 1 µM in assay [2] came to 27%.
